In general, LD50 refers to the dose expected to kill half of the subjects tested. Lower therefore signals greater toxicity.

Results on one molecule are retold here after patent US5942511A, “Allylthiopyridazine derivatives and process for preparing the same” (Kwon; Soon Kyoung, priority 1998, dated 1999).

For one data set, the system named is hepatocyte necrosis. Nature of the data set: Effect of inhibiting hepatic disorder induced by carbon tetrachloride: hepatocyte necrosis. The class given is in vivo, male ICR mice. Conditions: CCl4 model, 50 mg/kg per day oral, 3 days. The protocol:
In the present invention, the inhibiting effect of the compound of formula (I) on hepatic disorder, induced by carbon tetrachloride and acetaminophene, was determined after oral administration of the novel compound according to the present invention to mouse as the experimental animal for 3 days. The degree of liver damage in respective experimental animal was determined by measuring ALT and LDH levels in blood [see, Biol. Pharm. Bull., 20, 4, 381-385, 1997; Toxicology and Applied Pharmacology, 95, 1-11, 1988], and further by removing the liver, staining (×100) the liver with hematoxylin and eosin and then observing with microscope to examine the degree of hepatocyte necrosis.
The liver protective effect of the compound according to the present invention was examined according to the known method [see, Philippe letteron et al., Biochemical Pharmacology, 39, 12, 2027-2034, 1990] as specifically described below.
The compound according to the present invention was suspended in corn oil and the resulting suspension was administered in an amount of 1.0 ml/kg. Each group was composed of 3 to 10 male ICR mice (5-6 weeks) and the test compound was orally administered for 3 days in the dose of 50 mg/kg per day. After the test compound was administered, carbon tetrachloride was intraperitoneally injected in an amount of 100 μl/kg. In this experiment, silymarin was used as the comparative compound. After 24 hours from administration of carbon tetrachloride, blood was taken from the test animal by cardiac perforation and ALT value in serum was determined. The result obtained is described in the following Table 2 (in which ALT value is represented by mean±SE). The ALT unit in serum was determined by centrifuging blood to separate serum as the supernatant, and then the separated serum were subjected to Reitman-Frankel method by means of a commercially available kit (BC101-O,P, Youngdong Pharm.). That is, DL-alanine and α-ketoglutarate were used as the substrate solution to which 2,4-dinitrophenylhydrazine was added to produce hydrazone. Then, sodium hydroxide was added to hydrazone to colorize and then the absorbance was measured at 505 nm.
In addition, liver was removed from the test animals, stained (×100) with hematoxylin and eosin and then observed by microscope. The degree of hepatocyte necrosis was evaluated according to the following 5 grades: 0 no lesion, 1 mild lesion, 2 moderate lesion, 3 severe lesion and 4 diffused lesion.

The test system of another data set is radiation damage. Nature of the data set: Protective effect against radiation damage: survival of mouse. It is filed as in vivo, male ICR mouse. As to conditions: 100 mg/kg per day, 2 days. An excerpt:
Further, the present inventors have confirmed the protective effect of allylthiopyridazine derivative according to the present invention against radiation by administering the active compound to mouse, irradiating the radiation of 8 or 9Gy and, after a certain period, measuring the survival rate of mouse. For example, the survival rate during 30 days of 8Gy radiation can be seen from FIG. 3, and the specific experimental result is described in the following Table 7. Specifically, when 8Gy radiation is used, the survival rate during 30 days in the groups which only radiation was used was merely 48%, whereas the survival rates during 30 days in the groups to which the compounds of Examples 4 and 8 are previously administered were 76% and 70%, respectively. Therefore, it can be noted that the protective effect of the compound according to the present invention against radiation is proven to be a very significant novel discovery.
Protective effect against radiation damage
In order to confirm the protective effect of the compound of the present invention against radiation damage, the following test was conducted.
Male ICR mouse was bred in a chamber to which sterile atmosphere is supplied, at inner temperature 20-23° C. and relative humidity 50% with sufficient water and feed. When the weight of mouse reached 20-25 g, the compound of the present invention was suspended in corn oil and then administered for 2 days in the dose of 100 mg/kg (1 ml/kg) per day. After 3 hours from the last administration of the test compound, 8 or 9 Gy radiation was irradiated to mouse. Specifically, mouse was introduced into a box made of acryl which limited his movement, and then radiation produced from ^60 Co radioactive material was irradiated to whole body at the irradiating rate of 115.8 cGy/min. The dimension of acryl box was 31×31 cm^2, which is the same as the irradiating area of radiation. After 7 days of irradiation of γ-ray, mouse was sacrificed to conduct the histopathologic observation. The result of examining the survival rate during 30 days of irradiation of 8 Gy radiation is shown in FIG. 3, and the result of determining the survival rate after a certain period (10, 13 or 30 days) from irradiation of 8 or 9 Gy radiation is described in the following Table 7.

The subject of another data set is ICR male mouse. In words: Acute toxicity test, single oral administration. The class given is in vivo. Conditions: 14 days. How it is done:
(§1) Moreover, as a result of an acute toxicity test using mouse to evaluate the general toxicity of the compound according to the present invention, when the compound is single administered via oral route, the LD50 value of the respective compound is 3.5 g/kg or more. Therefore, the compound of the present invention is determined as being very safe.
(§2) The acute toxicity test was carried out to quantitatively and qualitatively examine the toxicity which occurs within a short period of time after a single administration of the test compound to the experimental animal.
(§3) In this experiment, the acute toxicity test was conducted using 5-6 weeks ICR male mouse obtained from Korea Experimental Animal Center. From 6 p.m., the day before administration of the test compound, to 9 a.m. the day on which the test compound is administered, mouse was fasted. The test compound was ground and suspended in corn oil and then administered in the dose of 1000 to 6000 mg/kg to the experimental animal. For each dose, 6 animals were used. The test compound was prepared and used on that day, and was single administered via oral route by means of a needle. After the compound of Example 4, as typical example of the compound according to the present invention was administered, the survived and died animals were observed during 14 days.

Data set [1] can be described thus: Acute toxicity test, single oral administration. The class given is in vivo. Conditions: in vivo, mouse, Litchfield-Wilcoxon method, 95% confidence interval 3.26-4.78 g/kg (Example 4). The protocol: as §1, §2, §3

“And” between values parts separate entries of the source, which are not always exact repeats. Equal entries are not always repeated.

On to `C=CCSc1ccc(OC)nn1` [Example 4, 3-methoxy-6-allylthiopyridazine], for which the “Degree of necrosis 0: number of animals” value with hepatocyte necrosis (grade 0 no lesion) amounted to 0. The “Degree of necrosis 1: number of animals” value in the data set on hepatocyte necrosis (grade 1 mild lesion) is on record as 1. Further, the “Degree of necrosis 2: number of animals” value in the data set on hepatocyte necrosis (grade 2 moderate lesion) is reported as 5. Also, in the data set with hepatocyte necrosis (grade 3 severe lesion), the “Degree of necrosis 3: number of animals” value was 2. Moreover, in the data set on hepatocyte necrosis (grade 4 diffused lesion), the “Degree of necrosis 4: number of animals” value came to 2. For the same molecule, the survival number is recorded as 16/23 in the data set with radiation damage (10 days of 9 Gy radiation), 3/23 in the data set with radiation damage (13 days of 9 Gy radiation) and 18/23 in the data set on radiation damage (30 days of 8 Gy radiation). In addition, the survival rate with radiation damage (10 days of 9 Gy radiation) was 70%; with radiation damage (13 days of 9 Gy radiation) it was 13%; in the data set on radiation damage (30 days of 8 Gy radiation, 100 mg/kg/day), 78% and 76%. Also, the “D/T (number of died animals / number of test animals)” value in the data set on ICR male mouse (1000 mg/kg) is listed as 0/6; in the data set with ICR male mouse (2000 mg/kg), 0/6; with ICR male mouse (3000 mg/kg) it was 1/6; with ICR male mouse (4000 mg/kg), 3/6; with ICR male mouse (5000 mg/kg), 4/6; with ICR male mouse (6000 mg/kg), 6/6. The molecule also had a 50% lethal dose (LD50) at 336 h in data set [1] of 3950 mg/kg.
